# Measurements taken from paper PMC10145360, “Antiplatelet Aggregation Properties of Cirsilineol: A Novel Inhibitor of Blood Coagulation Factor Xa” (Pharmaceuticals, 2023).
# Several values for one entry are separate records, joined by “and”; a condition that tells them apart may be missing. Identical values can stand only once. Marks after values point to notes of the source that are not given here.
# What was measured:
# [1] = system: human umbilical vein endothelial cells (HUVECs); assay: NO and ET-1 production, ELISA; assay type: cell-based; conditions: ADP or U46619 treated
# HUVECs = assay: MTT cell viability assay; assay type: cell-based, human; conditions: CSL 5–50 μM
# Experimental: First, the potential cytotoxicity of […] on HUVECs was assessed using the 3-(4,5-dimethylthiazol-2-yl)-2,5-diphenyltetrazolium bromide (MTT) assay. […] The activated partial thromboplastin time (aPTT) and prothrombin time (PT), two coagulation parameters altered by CSL in vitro, were assessed first. We used the direct FXa inhibitor rivaroxaban as a positive control for our experiments. […] In the aPTT experiments, rivaroxaban at 8.38 μM and CSL at 7.23 μM, respectively, doubled the clotting time. Each mouse group (n = 5) received intravenous injections of CSL for 4 consecutive days to validate the in vitro results in an ex vivo experiment. […] In the ex vivo aPTT assays, treatment with CSL at 0.25 mg/kg and rivaroxaban at 0.29 mg/kg, respectively, doubled the clotting time. The average blood volume was determined to be 2 mL based on an estimated circulating blood volume for mice of 72 mL/kg and an average weight of 27 g for each animal used in this investigation. As a result, the estimated concentration of CSL in the peripheral blood after each injection ([…]) was 2.5, 5, 10, or 20 μM, respectively.
# A 3-(4,5-dimethylthiazol-2-yl)-2,5-diphenyltetrazoliumbromide (MTT) assay was used to measure cell viability. […] The amount of formazan salt formed was measured spectrophotometrically at 540 nm.
# [2] = system: FeCl3-induced carotid artery thrombosis; assay: FeCl3-induced carotid artery thrombosis model; assay type: in vivo, mouse; conditions: mice
# Experimental: A mouse model of FeCl3-induced thrombosis was created and used. Male C57BL/6 mice were starved for the entire night before receiving intravenous injections of the relevant drug in 0.2 mL of DMSO and were allowed to sleep. The carotid artery of the animal was exposed. The adventitial surface was covered with a cotton thread (200 μm in diameter) soaked in FeCl3 solution (0.25 M) for 5 min. The wound was flushed with saline solution once the thread had been removed. […] We measured the size and rate of thrombus formation, and we graded our results as follows: no thrombus or small thrombus (75–50 μm), medium thrombus (150–100 μm), massive thrombus (300–200 μm), and more than three thrombi. It was also noted how long it took for an extensive thrombus to obstruct the carotid artery following endothelial damage caused by FeCl3.
# Factor Xa = target: T1, Factor Xa (Homo sapiens, UniProt P00742); assay: FXa amidolytic activity and inhibitory constant (chromogenic substrate); assay type: biochemical
# T1 construct: Factor Xa; purchased Haematologic Technologies (Essex Junction, VT, USA)
# T1 sequence (P00742 235-488 limits assumed): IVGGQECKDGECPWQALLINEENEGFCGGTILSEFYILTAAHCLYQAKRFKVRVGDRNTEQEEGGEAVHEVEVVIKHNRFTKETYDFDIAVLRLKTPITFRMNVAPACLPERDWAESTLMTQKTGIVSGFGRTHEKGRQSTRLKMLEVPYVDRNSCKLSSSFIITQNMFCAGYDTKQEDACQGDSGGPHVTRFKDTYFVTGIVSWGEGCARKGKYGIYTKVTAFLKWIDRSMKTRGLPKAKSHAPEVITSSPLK
# T1 sequence (P00742 41-179 partner limits assumed): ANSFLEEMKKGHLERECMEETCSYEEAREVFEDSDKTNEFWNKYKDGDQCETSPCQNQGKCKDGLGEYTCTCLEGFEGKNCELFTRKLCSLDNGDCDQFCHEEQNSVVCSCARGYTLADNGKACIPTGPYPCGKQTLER
# Experimental: CSL was dissolved in 50 mM Tris buffer, which has a pH of 7.4, and was added to 150 μL of FXa solution (1 U/mL). This mixture was incubated for 1 min at 37 °C. Additionally, 150 μL of S-2222 solution (1.5 mM) was blended, and for 20 min, the changes in absorbance were observed spectrophotometrically at 405 nm. We used the slope of the curve (Vi) and the absorbance–time curve to determine enzyme activity. Equation (1) was used to compute the CSL inhibitory rates:Inhibitory rate (%) = (V0 − Vi)/V0 × 100(1) where Vi and V0 represent the slopes of the samples and the vehicle, respectively.
# Ki values were calculated based on chromogenic substrate experiments. CSL was employed in each assay at a minimum of seven concentrations in duplicate to obtain an inhibition curve. A total of 50 μL of substrate was combined with 25 μL of each chemical solution, inhibitor solution, or blank buffer. Before the plate was allocated into the Labsystems IEMS microtiter plate reader (Cergy Pontoise, France), 25 μL of the enzyme solution was mixed. The plate was allowed for 1 h at 37 °C before analysis. We continuously observed the formation of p-nitroaniline produced when the substrate was hydrolyzed using spectrophotometry at 405 nm. The maximum initial reaction rates were computed as the millioptical density per minute. A Dixon plot of 1/Vmax versus inhibitor concentration was used to fit the curve and determine the Ki values.
# [3] = system: collagen and epinephrine-induced pulmonary thrombosis; assay: Acute pulmonary thrombosis induced by collagen and epinephrine; assay type: in vivo, mouse; conditions: for Mortality %: then collagen + epinephrine, mice; for Scored thrombus formation (Thrombi), lung: graded as thrombi per 25 mm^2 lung field
# Experimental: Mice were separated into several groups after being fasted overnight (10 animals each). CSL was dissolved in DMSO and given intravenously to each mouse. After 1 h, the animals received an injection of collagen and epinephrine mixture (500 μg/kg each) to induce acute thrombosis. Each mouse was closely observed for 15 min to see if it had recovered from the acute thrombosis challenge, had been paralyzed, or had passed away. H&E-stained lung tissue slices from five mice were randomly selected for the histologic investigation to determine the extent of pulmonary thrombus development. The number of arteries greater than 20 μm in diameter with any detectable thrombus was counted in each of the five view fields randomly selected from the left lobe in each section (one section per mouse). Twenty-five fields for each group were compared as a result. A total of 60–80 vessels in each segment were imaged using the system (Leica, Germany). The results were graded as the number of thrombi per 25 mm^2 lung field as previously described.
smiles,measurement,setting,value
"COc1cc(-c2cc(=O)c3c(O)c(OC)c(OC)cc3o2)ccc1O [CSL, 4,5-dihydroxy-3,6,7-trimethoxyflavone]",NO secretion,[1],returned the decreased NO secretion caused by ADP or U46619 to their baseline levels
same,production of ET-1,[1],returned the increased production of ET-1
same,cell viability (MTT),HUVECs,no change in cell viability
same,Scored thrombus formation,[2]; 0.13 mg/kg intravenous,3.7 ± 0.2
same,Time to Large Thrombus Formation,[2]; 0.13 mg/kg intravenous,13.1 ± 1.1 min
same,Scored thrombus formation,[2]; 0.26 mg/kg intravenous,2.7 ± 0.1
same,Time to Large Thrombus Formation,[2]; 0.26 mg/kg intravenous,27.2 ± 2.1 min
same,Scored thrombus formation,[2]; 0.51 mg/kg intravenous,1.8 ± 0.1
same,Time to Large Thrombus Formation,[2]; 0.51 mg/kg intravenous,51.4 ± 3.1 min
same,Km value of FXa on S-2222,Factor Xa,increase
same,Vmax of FXa on S-2222,Factor Xa,decrease
same,selectivity ratio (based on Ki values) for FXa compared to other enzymes examined,Factor Xa,> 300
same,slope of Michaelis–Menten plot,"Factor Xa; CSL 10 μM, FXa on S-2222",0.568
same,slope of Michaelis–Menten plot,"Factor Xa; CSL 20 μM, FXa on S-2222",0.759
same,inhibitory pattern (Lineweaver–Burk plot),Factor Xa; FXa on S-2222,mixed-type inhibitory pattern
same,Ratio = Ki enzyme/Ki Factor Xa,Factor Xa; Factor Xa,1
same,Ki,"Factor Xa; Factor Xa, chromogenic substrate S-2222, Dixon plot",3.71 µM and 3.7 µM
same,Mortality %,[3]; 0.13 mg/kg intravenous,85 ^# %
same,"Scored thrombus formation (Thrombi), lung",[3]; 0.13 mg/kg intravenous,3.5 ± 0.1
same,Mortality %,[3]; 0.26 mg/kg intravenous,80 ^# %
same,"Scored thrombus formation (Thrombi), lung",[3]; 0.26 mg/kg intravenous,2.5 ± 0.1
same,Mortality %,[3]; 0.51 mg/kg intravenous,60 ^# %
same,"Scored thrombus formation (Thrombi), lung",[3]; 0.51 mg/kg intravenous,1.8 ± 0.2
